Measurements published in patent US7413895B2, “DNA encoding neutral amino acid transporter” (Japan Science and Technology Corporation, priority 1998, dated 2008).

Key:
[1] = test system: rat liver cell line where LAT1 was highly expressed; experiment: Cell proliferation of cultured rat liver cell line, Cell Counting Kit-8; assay type: cell-based; details: 20 mM added to William's medium, incubation for 48 hours
Experimental: A rat liver cell line where LAT1 was highly expressed was incubated on a William's medium, 20 mM of D-leucine or BCH which suppressed the incorporation mediated by LAT1 were added to the medium and, by means of an incubation for 48 hours, cell numbers were investigated using a Cell Counting Kit-8 (manufactured by Dojindo Laboratories). The cell numbers were measured as an absorption at 450 nm (O.D. 450).

[2] = test system: T24 cells derived from human bladder cancer; experiment: Inhibition of 14C-leucine incorporation by T24 cells by amino acids and similar substances; assay type: cell-based; details: 14C-leucine 20 μM, 2 mM unlabeled compound
[3] = test system: T24 cells derived from human bladder cancer; experiment: Inhibiting mode of leucine incorporation by T24 cells by BCH, double reciprocal plots; assay type: cell-based
Experimental: T24 cells derived from human bladder cancer were incubated and maintained in an Eagle's minimal essential medium containing 10% of fetal bovine serum. A test for the incorporation of amino acids into T24 cells was carried out by incubating the T24 cells on a 24-well plate and finished when the state became confluent. The amino acid incorporation test was started by removing the incubating solution and adding a Dulbecco's PBS (manufactured by Gibco) containing ^14C-amino acid and finished by removing it, cooling with ice and washing with a Dulbecco's PBS. After washing, the above was dissolved in 0.1N NaOH and the radioactivity was measured by a liquid scintillation counter.
Dependency of the ^14C-leucine incorporation by T24 cells on the concentration was measured in the absence of BCH, in the presence of 50 μM of BCH and in the presence of 100 μM of BCH and the inhibiting mode was investigated by means of double reciprocal plots.

[4] = test system: T24 cells derived from human bladder cancer; experiment: Proliferation of T24 cells with or without BCH; assay type: cell-based; details: 20 mM of BCH, 5 days, cell numbers counted
Experimental: (§1) T24 cells derived from human bladder cancer were incubated and maintained in an Eagle's minimal essential medium containing 10% of fetal bovine serum. Human Daudi cells were incubated and maintained in an RPMI medium containing 20% of fetal bovine serum. T24 cells or Daudil cells were incubated in a 24-well plate (800 cells/well) for 5 days in a medium with or without 20 mM of BCH and the cell numbers were counted.

Human Daudi cells = experiment: Proliferation of Daudi cells with or without BCH; assay type: cell-based; details: 20 mM of BCH, 5 days, cell numbers counted
Experimental: as §1

CCRF-SB cells = experiment: Proliferation of CCRF-SB cells, effect of BCH; assay type: cell-based, human; details: expression of 4F2hc not detected
P30/OHK cells = experiment: Proliferation of P30/OHK cells, effect of BCH; assay type: cell-based, human; details: expression of 4F2hc not detected
[5] = test system: cells where both LAT1 and 4F2hc were strongly expressed; experiment: Proliferation of cells where both LAT1 and 4F2hc were strongly expressed, effect of BCH; assay type: cell-based, human
Experimental: as §1

Mouse sarcoma 180 cells = experiment: Survival of ICR mouse after intraperitoneal transplantation of mouse sarcoma 180 cells; assay type: in vivo; details: male ICR mouse, sarcoma 180 cells intraperitoneally transplanted, 300 mg/kg for ten days, observation for 19 days
Experimental: Mouse sarcoma 180 cells were intraperitoneally transplanted (1×10^6) to male ICR mouse and, from the next day of the transplantation, BCH which was a inhibitor for the amino acid transporter, D-Leu having a inhibiting effect on amino acid transporter and D-Ala having no inhibiting action thereon were administered at the dose of 300 mg/kg for ten days. After the transplantation, it was confirmed every day whether the mouse was dead or alive.

[6] = target: T1, human amino acid transporter LAT1 (Homo sapiens, UniProt Q01650); experiment: Competitive antagonism test: incorporation of 14C-labeled leucine or phenylalanine into oocytes co-expressing human LAT1 and human 4F2hc in the presence of test substance; assay type: cell-based; set-up: expressed in transfected cells; details: 14C-labeled leucine 20 μM, test substance 2 mM, 30 minutes, choline chloride uptake solution
[7] = target: T1, human amino acid transporter LAT1; experiment: Incorporation of 14C-labeled amino acids into oocytes co-expressing human LAT1 and human 4F2hc; assay type: cell-based; set-up: expressed in transfected cells; details: summary statement of the disclosure
[8] = target: rat neutral amino acid transporter LAT1 (Rattus norvegicus, UniProt Q63016); experiment: Inhibition of 14C-leucine incorporation into oocytes injected with rat LAT1 and rat 4F2hc cRNA by amino acids and similar substances; assay type: cell-based; set-up: expressed in transfected cells; host or cells: oocytes (Xenopus laevis by the cited method of Kanai and Hediger) injected with rat LAT1 cRNA and rat 4F2hc cRNA; details: rat LAT1/rat 4F2hc oocytes; 14C-leucine 20 μM, 2 mM unlabeled compound, choline uptake solution
rat neutral amino acid transporter LAT1, sequence (Q63016 whole entry): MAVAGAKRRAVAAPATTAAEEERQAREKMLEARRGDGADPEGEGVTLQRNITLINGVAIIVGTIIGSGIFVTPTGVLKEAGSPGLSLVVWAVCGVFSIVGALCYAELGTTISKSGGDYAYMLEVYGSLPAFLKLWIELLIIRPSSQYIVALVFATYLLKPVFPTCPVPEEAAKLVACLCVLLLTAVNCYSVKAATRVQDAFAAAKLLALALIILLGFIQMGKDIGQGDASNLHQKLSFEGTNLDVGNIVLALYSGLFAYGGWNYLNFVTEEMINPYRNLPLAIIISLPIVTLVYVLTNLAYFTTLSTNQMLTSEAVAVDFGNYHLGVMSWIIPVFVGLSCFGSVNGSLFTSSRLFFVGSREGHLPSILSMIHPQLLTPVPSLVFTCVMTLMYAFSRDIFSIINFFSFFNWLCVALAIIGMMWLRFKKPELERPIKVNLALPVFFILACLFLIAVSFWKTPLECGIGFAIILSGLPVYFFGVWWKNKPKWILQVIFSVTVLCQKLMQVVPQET
rat neutral amino acid transporter LAT1, sequence (Q794F9 whole entry partner): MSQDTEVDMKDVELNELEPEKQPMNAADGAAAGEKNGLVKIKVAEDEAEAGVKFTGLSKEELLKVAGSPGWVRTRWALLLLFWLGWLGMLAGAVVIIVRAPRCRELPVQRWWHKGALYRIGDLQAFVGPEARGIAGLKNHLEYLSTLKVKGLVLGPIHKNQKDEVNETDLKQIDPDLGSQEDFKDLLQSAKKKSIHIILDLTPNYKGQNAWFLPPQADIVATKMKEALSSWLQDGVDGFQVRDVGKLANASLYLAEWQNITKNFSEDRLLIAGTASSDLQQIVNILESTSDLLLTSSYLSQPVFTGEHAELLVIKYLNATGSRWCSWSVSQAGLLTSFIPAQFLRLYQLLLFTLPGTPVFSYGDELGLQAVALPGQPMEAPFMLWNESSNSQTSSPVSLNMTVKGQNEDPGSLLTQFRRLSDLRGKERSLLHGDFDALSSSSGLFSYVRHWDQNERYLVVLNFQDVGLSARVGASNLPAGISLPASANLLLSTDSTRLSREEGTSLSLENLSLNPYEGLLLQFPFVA

T1 sequence (Q01650 whole entry): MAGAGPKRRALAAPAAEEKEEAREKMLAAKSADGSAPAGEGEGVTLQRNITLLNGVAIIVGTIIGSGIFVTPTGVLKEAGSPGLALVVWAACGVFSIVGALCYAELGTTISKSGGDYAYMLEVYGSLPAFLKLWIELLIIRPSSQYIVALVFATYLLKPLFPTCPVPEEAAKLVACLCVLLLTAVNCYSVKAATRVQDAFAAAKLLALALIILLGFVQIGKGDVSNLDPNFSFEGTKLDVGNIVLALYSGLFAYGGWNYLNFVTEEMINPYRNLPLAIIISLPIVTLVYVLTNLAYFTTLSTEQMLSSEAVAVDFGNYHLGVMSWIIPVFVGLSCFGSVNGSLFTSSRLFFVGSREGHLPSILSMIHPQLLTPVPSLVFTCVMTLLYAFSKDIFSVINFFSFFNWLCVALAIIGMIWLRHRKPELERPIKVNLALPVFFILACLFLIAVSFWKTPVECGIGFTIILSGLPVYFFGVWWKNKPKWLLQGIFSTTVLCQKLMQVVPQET
T1 sequence (as listed by the source partner): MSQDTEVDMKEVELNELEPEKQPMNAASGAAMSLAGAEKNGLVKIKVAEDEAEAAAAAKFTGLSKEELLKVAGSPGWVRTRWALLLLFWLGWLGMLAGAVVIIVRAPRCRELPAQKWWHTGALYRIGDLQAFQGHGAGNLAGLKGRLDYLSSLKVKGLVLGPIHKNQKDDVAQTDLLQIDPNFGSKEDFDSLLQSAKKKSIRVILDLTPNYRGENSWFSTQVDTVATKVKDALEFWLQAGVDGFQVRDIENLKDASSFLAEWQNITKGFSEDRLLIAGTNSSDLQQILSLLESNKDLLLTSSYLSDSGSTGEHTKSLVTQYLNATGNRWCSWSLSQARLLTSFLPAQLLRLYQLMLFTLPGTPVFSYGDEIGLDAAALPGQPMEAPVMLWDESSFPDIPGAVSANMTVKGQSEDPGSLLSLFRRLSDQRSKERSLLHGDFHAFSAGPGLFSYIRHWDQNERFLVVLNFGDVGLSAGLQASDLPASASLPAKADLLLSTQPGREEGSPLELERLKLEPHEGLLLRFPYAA

`NC1(C(=O)O)CC2CCC1C2` (stereo not shown) [BCH, 2-amino-2-norbornane-carboxylic acid] was tested. Which “cell numbers (O.D. 450) compared with control group” value [1] did it give?
The value was “a reduction in the cell numbers was noted”.

And the “inhibition of incorporation of 14C-leucine by T24 cells” value [2]?
The value was “strongly inhibited”.

And the “inhibiting mode of leucine incorporation” value ([3]; 0, 50 μM and 100 μM of BCH, double reciprocal plots)?
The value was “competitive inhibition”.

What about the Ki ([3]; 14C-leucine incorporation, 50 μM and 100 μM of BCH) of the same compound?
The Ki was 156 µM.

And the “suppression of proliferation of T24 cells” value [4]?
Its value is “highly suppressed”.

What about the “suppression of proliferation of Daudi cells” value (Human Daudi cells) of the same compound?
The value was “rarely showed a suppressing effect”.

What about the “effect on proliferation of CCRF-SB cells” value (CCRF-SB cells) of the same compound?
Its value is “weak”.

And the “effect on proliferation of P30/OHK cells” value (P30/OHK cells)?
Its value is “weak”.

And the “suppressing effect on proliferation” value [5]?
The value was “strong suppressing effect”.

And the survival effect (Mouse sarcoma 180 cells)?
The survival effect was “significant survival effect”.

What about the “inhibition of incorporation of 14C-labeled leucine mediated by the human LAT1” value [6] of the same compound?
The value was “inhibited”.

And the “incorporation in a cell in which human LAT1 and human 4F2hc are co-expressed” value [7]?
Its value is “confirmed”.

What about the “inhibition of incorporation of 14C-leucine mediated by LAT1” value [8] of the same compound?
Its value is “inhibited”.
